The text below walks through data of the supplement of paper PMC10307832.

Holding throughout (assay): relative viability (nuclei count vs DMSO), 5 days (fraction); higher = more cells survive
Compound in test [1]: CCN1CCN(c2ccc(Nc3cc(N(C)C(=O)Nc4c(Cl)c(OC)cc(OC)c4Cl)ncn3)cc2)CC1 [BGJ398] + CC(C)C[C@H](NC(=O)[C@H](Cc1ccccc1)NC(=O)c1cnccn1)B(O)O [Bortezomib] (partner 0.002 µM)
Put shortly: (§1)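 After 5 days of treatment, lung cancer cells in 1536-well plates were fixed and stained in a single step (final 0.05% Triton X-100, 1% formaldehyde, 1 ug/ml Hoechst) and their nuclei counted on 4× images. Treatment had been applied by pin tool the day after seeding as one drug alone or as a fixed anchor-drug dose with five library-drug doses (not always all listed) in √10 steps. Relative viability is the nuclei count of treated wells divided by that of vehicle wells, and values are medians of duplicate plates.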

Compound in test [2]: CCN1CCN(c2ccc(Nc3cc(N(C)C(=O)Nc4c(Cl)c(OC)cc(OC)c4Cl)ncn3)cc2)CC1 [BGJ398] + Cc1nc(Nc2ncc(C(=O)Nc3c(C)cccc3Cl)s2)cc(N2CCN(CCO)CC2)n1 [Dasatinib] (partner 0.075 µM)
The method, boiled down: as §1

Compound in test [3]: C1=CC2=NC=CN=C2C=C1/C=C/3\C(=O)NC(=O)S3 + Cc1cc(Nc2cc(N3CCN(C)CC3)nc(Sc3ccc(NC(=O)C4CC4)cc3)n2)n[nH]1 [Tozasertib] (partner 0.1 µM)
Put shortly:
as §1

Compound in test [4]: CCN1CCN(c2ccc(Nc3cc(N(C)C(=O)Nc4c(Cl)c(OC)cc(OC)c4Cl)ncn3)cc2)CC1 [BGJ398] + O=C(c1cc(Cc2n[nH]c(=O)c3ccccc23)ccc1F)N1CCN(C(=O)C2CC2)CC1 [Olaparib] (partner 8 µM)
Put shortly:
as §1

Take UMC-11: the relative viability in test [1] (first compound 0.01 µM) was 0.759; in test [1] (first compound 0.03162 µM), 0.632; in test [1] (first compound 0.1 µM), 0.706; in test [1] (first compound 0.3162 µM), 0.661; in test [1] (first compound 1 µM) it was 0.475; in test [2] (first compound 0.01 µM), 0.463. The relative viability in test [2] (first compound 0.03162 µM) is 0.465; in test [2] (first compound 0.1 µM) it was 0.51; in test [2] (first compound 0.3162 µM), 0.454; in test [2] (first compound 1 µM), 0.443; in test [3] (first compound 0.02 µM) it was 0.205; in test [3] (first compound 0.06325 µM), 0.193. Moreover, the relative viability in test [3] (first compound 0.2 µM) came to 0.202; in test [3] (first compound 0.6325 µM) it was 0.203; in test [3] (first compound 2 µM), 0.192; in test [4] (first compound 0.01 µM), 0.316; in test [4] (first compound 0.03162 µM) it was 0.447; in test [4] (first compound 0.1 µM), 0.376. Besides, the relative viability in test [4] (first compound 0.3162 µM) is 0.367; in test [4] (first compound 1 µM), 0.342.
